Results: patent US8740872B2, “Magnetically-targeted treatment for cardiac disorders” (The Board of Regents of the University of Oklahoma, priority 2010, dated 2014)

Legend:
[1] = in vivo; cited from earlier work
[2] = system: neurons; settings: cited from earlier work
[3] = dog, in vivo
Experimental: In 6 other animals, 1.6 mg of NIPA-M (twice the amount of NIPA-M incorporated into one trans-coronary delivery) was directly injected into the left ventricle. NIPA-M used in these experiments was not incorporated into the hydrogel in order to simulate the greatest possible toxic challenge should the total NIPA-M dose be released instantly into the circulation from trans-coronary infusion. Serum samples before and 9.7±0.3 hours after NIPA-M injection were collected for paired analysis to assess renal and hepatic toxicity.

[4] = system: neurotransmitter release at the synapse; settings: cited from earlier work

Compound | neuropathy following prolonged oral exposure [1] | LD50% to kill 50% neurons [2] [mM] | BUN/creatine ratio [3] | alanine aminotransferase (ALT) [3] [U/L] | blood urea nitrogen (BUN) [3] [mmol/L] | serum creatinine [3] [mmol/L] | duration of inhibition of neurotransmitter release at the synapse [4]
C=CC(=O)NC(C)C [NIPA-M, N-isopropyl acrylamide monomer] | induce clinical (ataxia, rotorod performance deficits) and morphological (tibial nerve degeneration) signs of neuropathy | 5 to 8 | 17.6±1.7 | 41.3±8.7 | 16.2 ± 2.9 | 0.9 ± 0.1 | –
botulinum toxin-A [BtA] | – | – | – | – | – | – | 3-6 months
